# Data as given in US7799530B2, “Genetic polymorphisms associated with cardiovascular disorders and drug response, methods of detection and uses thereof” (Celera Corporation, priority 2005, dated 2010).
# Test system: MI / coronary events in Scottish men with hypercholesterolemia
# Assay: WOSCOPS nested case-control study: MI/CHD in pravastatin- vs placebo-treated patients stratified by SNP genotype
# Format: in vivo, human
# Conditions: for OR, CHD case vs control, Matched: placebo = ref 1.00, cases and controls matched for age and smoking; for OR, CHD case vs control, Adjusted: placebo = ref 1.00, matched and adjusted for hypertension, diabetes, BMI, LDL-C, HDL-C; for Risk Reduction by Statin (Pravastatin vs. Placebo) OR: odds ratio of MI, pravastatin- vs placebo-treated, heterozygous carriers of hCV3054799 only
# Text: In order to identify genetic markers associated with acute coronary events (e.g. MI, stroke, unstable angina, congestive heart failure, etc.) or response to statin treatment for the prevention of coronary events, samples were genotyped in two clinical trials: the Cholesterol and Recurrent Events (CARE) study (a randomized multicentral double-blinded trial on secondary prevention of acute coronary events with pravastatin; Sacks et al., Am. J. Cardiol. 68: 1436-1446[1991]), and the West of Scotland Coronary Prevention Study (WOSCOPS) study (Shepherd et al., N Eng J Med 333 (20), pp. 1301-7, Nov. 16, 1995; Packard et al., N Eng J Med 343 (16), pp. 1148-55, Oct. 19, 2000).
# Genetic markers identified as associated with acute coronary events or response to statin treatment for the prevention of coronary events in the CARE samples were also genotyped in a second sample set, the West of Scotland Coronary Prevention Study (WOSCOPS). The design of the original WOSCOPS cohort and the nested case-control study have been described (Shepherd et al., N Eng J Med 333 (20), pp. 1301-7, Nov. 16, 1995; Packard et al., N Eng J Med 343 (16), pp. 1148-55, Oct. 19, 2000). The objective of the WOSCOPS trial was to assess pravastatin efficacy at reducing risk of primary MI or coronary death among Scottish men with hypercholesterolemia (fasting LDL cholesterol>155 mg/dl). Participants in the WOSCOPS study were 45-64 years of age and followed for an average of 4.9 years for coronary events. The nested case-control study included as cases all WOSCOPS patients who experienced a coronary event (confirmed nonfatal MI, death from coronary heart disease, or a revascularization procedure; N=580). Controls were age- and smoking-matched unaffected patients. All individuals included in the study had signed informed consent forms and the study protocol was approved by the IRBs. DNA was extracted and genotyped as described above.
# The association of hCV3054799 with risk of MI in patients was tested in two clinical trials, CARE and WOSCOPS, with patients receiving treatment with either pravastatin or placebo. CARE was a secondary prevention trial (i.e., recurrent MI as endpoint) and WOSCOPS was a primary prevention trial. […] The analysis in WOSCOPS (a nested case-control study) was performed using the MI as an endpoint.
# In both the CARE and WOSCOPS studies, an association analysis was performed for each of the two modes of inheritance, dominant and recessive. Additionally, a genotypic test (heterozygote v. major homozygote) and an allelic test of association were performed using Fisher's exact method. Estimates of odds ratios and corresponding ninety-five percent confidence intervals were calculated. The significance of the disease association for hCV3054799 with the overall (unstratified) population, and with the placebo- or pravastatin-treated patients are indicated in Table 8. […] In patients that are heterozygous carriers of the minor allele, the odds ratio for risk of MI relative to patients with no minor allele is 1.7, with a P value below 0.01 both studies. The odds ratio is approximately the same (1.6-1.7) when calculated for the dominant mode of inheritance (a genotype with one or two minor alleles vs. none), with a P value less than or equal to 0.01 in both studies.
# Also analyzed was whether hCV3054799 is associated with response to statin treatment (specifically, a decreased risk of MI as a result of treatment with pravastatin). […] Heterozygous carriers in the placebo treatment group were used as a reference in determining the odds ratios. […] For comparison, the odds ratio for association of this SNP with MI risk in placebo-treated carriers is also presented, under the heading “MI/RMI risk estimation” (data from Table 8; again, heterozygous carriers).
# In analyzing the CARE patients, statistical analysis was performed with SAS version 9. […]
smiles,measurement,setting,value
CC[C@H](C)C(=O)O[C@H]1C[C@H](O)C=C2C=C[C@H](C)[C@H](CC[C@@H](O)C[C@@H](O)CC(=O)O)[C@H]21 [pravastatin],"OR, CHD case vs control, Matched",KIF6 hCV3054799 AA,0.94
same,"OR, CHD case vs control, Adjusted",KIF6 hCV3054799 AA,0.91
same,"OR, CHD case vs control, Matched",KIF6 hCV3054799 GG + GA,0.50
same,"OR, CHD case vs control, Adjusted",KIF6 hCV3054799 GG + GA,0.50
same,Risk Reduction by Statin (Pravastatin vs. Placebo) OR,,approximately 0.5
same,Risk Reduction by Statin (Pravastatin vs. Placebo) OR,listed as Pravastatin,0.45
